The text below walks through data of patent US11648254B2 (Kumquat Biosciences Inc., priority 2021, dated 2023).

Like-named read-outs stand apart in the source and are kept apart here. Bounds are passed on as bounds.

One data set addresses SOS1 (Homo sapiens (Human), UniProt Q07889). Kind of data set: Ras-SOS interaction assay (HTRF). It counts as biochemical. Background: In TR-FRET formats the signal depends on donor and acceptor labels being close together.
For data set [1], the system named is MIA PaCa-2 cells (K-Ras G12C). Kind of data set: Ras-SOS cellular growth inhibition assay (CellTiter-Glo, 3D). To be noted: Homo sapiens. It counts as cell-based. An outline of the steps: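 Growth read by CellTiter-Glo luminescence about 5 days after dosing with 3-fold dilutions (9 points), added one day post-seeding. Cells: MIA PaCa-2, 3D culture on ultra-low-attachment surface, medium DMEM/Ham's F12 plus 10% FCS and 2.5% horse serum; IC50 by four-parameter fit.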
On the technique in general: Cellular ATP, detected with luciferase, serves as a proxy for viable cell number.

Data set [2] concerns NCI-H1975 cells (EGFR T790M L858R). The data set is described as follows: EGFR-SOS cellular inhibition assay (CellTiter-Glo, 3D). Format: cell-based. As to conditions: Homo sapiens.
The test system of data set [3] is ERK phosphorylation (p-ERK 1/2 Thr202/Tyr204) in MIA PaCa-2 or NCI-H1975 cells. Kind of data set: ERK phosphorylation assay (AlphaLISA p-ERK 1/2). It counts as cell-based. To be noted: MIA PaCa-2 cells or EGFR mutant NCI-H1975 cells; read-out: IC50 for the inhibition of ERK phosphorylation. On the procedure: MIA PaCa-2 cells (ATCC CRL-1420) expressing K-Ras G12C is grown in DMEM/Ham's F12 medium supplemented with 10% fetal calf serum, glutamine and ˜2.5% horse serum. Alternatively, other cell lines with aberrant Ras signaling output can be utilized. Non-limiting exemplary cell lines include NCI-H358 and H1975. Cells are plated in 96-well plates at a concentration of 40,000 cells/well and allowed to attach for at least 8 hours. Following, diluted solutions of test inhibitor compounds are added to the cell culture. After ˜2 hours of incubation, the medium is removed and lysis buffer from AlphaLISA® SureFire® Ultra™ p-ERK 1/2 (Thr202/Tyr204) assay kit (Perkin Elmer ALSU-PERK-A10K) is added to the cells. The plate is agitated for 10 min at room temperature and 10 μL of the lysate is transferred to a 384-well Optiplate™ (Perkin Elmer) for assay. Thereafter ˜5 μL of Acceptor Mix from the p-ERK AlphaLISA assay kit is added to wells and plate is sealed with adhesive film. The samples are incubated for one hour at room temperature. Following, 5 μL of Donor Mix is added to the wells and plate is re-sealed with adhesive film, and incubated for one hour at room temperature. The plate is then read on a multimode microplate reader (e.g., SPARK©Tecan) equipped with Alpha detection module. The data can be fitted to four-parameter dose-response curve using Prism version 9 (GraphPad) to calculate an IC50 for the inhibition of ERK phosphorylation. […] 355, 332, 366, 216, 264, 356, 266, in an ERK phosphorylation assay utilizing either MIA PaCa-2 cells (ATCC CRL-1420) or EGFR mutant cell line (NCI-H1975 (ATCC CRL-5908)).
For orientation: Bead proximity is the source of the signal in Alpha formats.

A short description of data set [4]: In vitro plasma protein binding (PPB). Format: in vitro ADME. As to conditions: percentage of free/unbound compound.
The nature of data set [5]: Metabolic (microsomal) stability assay. Format: in vitro ADME. To be noted: mouse liver microsomes, T1/2; read-out: DMPK-invitro-metabolic Stability (Mouse T1/2). From the text:
Example 12: Metabolic (Microsomal) Stability Assay

The mark [6] stands for this setting: K-RasG13D utilized, read-out: IC50 inhibition of SOS.
[7] abbreviates: K-RasG13D, read-out: IC50 value against SOS1.
[8] abbreviates: MIA PaCa-2, 120 h, MIA PaCa-2, 3D proliferation, about 5 days, read-out: Bio-Cell-Prolif-3D (MiaPaca2 IC50).
Setting [9] is: MIA PaCa-2, MIA PaCa-2, read-out: IC50 in inhibiting MIA PaCa-2 cell growth.
Setting [10] is: 120 h, NCI-H1975, 3D proliferation, about 5 days, read-out: Bio-Cell-Prolif-3D (H1975 IC50).
Where [11] appears, read: NCI-H1975, EGFR T790M L858R, read-out: IC50 in inhibiting growth of NCI-H1975 cell line.

Chain of SOS1 (Q07889 564-1049): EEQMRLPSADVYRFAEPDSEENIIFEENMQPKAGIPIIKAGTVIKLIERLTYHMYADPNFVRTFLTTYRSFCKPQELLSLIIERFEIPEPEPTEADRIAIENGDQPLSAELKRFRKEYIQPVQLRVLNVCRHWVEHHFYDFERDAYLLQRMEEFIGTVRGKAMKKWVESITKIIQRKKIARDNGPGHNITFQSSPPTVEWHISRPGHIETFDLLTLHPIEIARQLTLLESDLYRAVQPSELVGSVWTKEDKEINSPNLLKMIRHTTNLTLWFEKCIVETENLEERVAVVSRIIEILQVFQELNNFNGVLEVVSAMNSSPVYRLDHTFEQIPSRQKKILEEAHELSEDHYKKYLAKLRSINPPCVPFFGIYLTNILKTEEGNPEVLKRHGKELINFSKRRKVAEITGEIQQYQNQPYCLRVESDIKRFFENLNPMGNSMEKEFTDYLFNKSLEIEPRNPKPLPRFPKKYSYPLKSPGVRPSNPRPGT

Regarding `COc1nc2nc(C)nc(N[C@H](C)c3cccc(C(F)(F)[C@H](C)O)c3)c2cc1C1(C#N)CC1` [Compound 216, 1-(4-(((R)-1-(3-((S)-1,1-difluoro-2-hydroxypropyl)phenyl)ethyl)amino)-7-methoxy-2-methylpyrido[2,3-d]pyrimidin-6-yl)cyclopropane-1-carbonitrile], the IC50 (usually the concentration that gives 50% inhibition) is less than 100 nM on SOS1 (setting [6]); less than 50 nM at SOS1 (setting [7]); not above 1000 nM in data set [1] (setting [8]); less than 500 nM in data set [1] (setting [9]); not above 1000 nM in data set [2] (setting [10]); less than 500 nM in data set [2] (setting [11]). For the same compound, in data set [3], the IC50 was less than 1000 nM.

As to `COc1nc2nc(C)nc(N[C@H](C)c3cccc(C(F)(F)[C@H](C)O)c3F)c2cc1C1(C#N)CC1` [Compound 256, 1-(4-(((R)-1-(3-((S)-1,1-difluoro-2-hydroxypropyl)-2-fluorophenyl)ethyl)amino)-7-methoxy-2-methylpyrido[2,3-d]pyrimidin-6-yl)cyclopropane-1-carbonitrile], the IC50 is less than 100 nM on SOS1 (setting [6]); less than 50 nM on SOS1 (setting [7]); not above 1000 nM in data set [1] (setting [8]); less than 500 nM in data set [1] (setting [9]); not above 1000 nM in data set [2] (setting [10]); less than 500 nM in data set [2] (setting [11]). Moreover, in data set [4], the “DMPK-invitro-PPB (Mouse Unbound) [%]” value is reported as 0.77%. In addition, the half-life in data set [5] worked out at 0.62 h.

Consider `COc1nc2ncnc(N[C@H](C)c3cccc(C(F)(F)[C@@H](C)O)c3)c2cc1C1(C#N)CC1` [Compound 264, 1-(4-(((R)-1-(3-((R)-1,1-difluoro-2-hydroxypropyl)phenyl)ethyl)amino)-7-methoxypyrido[2,3-d]pyrimidin-6-yl)cyclopropane-1-carbonitrile], for which the concentration for half-maximal inhibition (IC50) at SOS1 (setting [6]) was less than 100 nM; at SOS1 (setting [7]) it was less than 50 nM; in data set [1] (setting [8]) it was not above 1000 nM; in data set [1] (setting [9]) it was less than 500 nM; in data set [2] (setting [10]), not above 1000 nM; in data set [2] (setting [11]), less than 500 nM. Further, the IC50 in data set [3] is less than 1000 nM. For the same compound, in data set [4], the “DMPK-invitro-PPB (Mouse Unbound) [%]” value came out at 4.94%. For the same compound, the half-life in data set [5] was 0.918 h.

For the compound `COc1nc2ncnc(N[C@H](C)c3cccc(C(F)(F)[C@H](C)O)c3)c2cc1C1(C#N)CC1` [Compound 266, 1-(4-(((R)-1-(3-((S)-1,1-difluoro-2-hydroxypropyl)phenyl)ethyl)amino)-7-methoxypyrido[2,3-d]pyrimidin-6-yl)cyclopropane-1-carbonitrile], the IC50 on SOS1 (setting [6]) was less than 100 nM; on SOS1 (setting [7]) it was less than 50 nM; in data set [1] (setting [8]), not above 1000 nM; in data set [1] (setting [9]) it was less than 500 nM; in data set [2] (setting [10]) it was not above 1000 nM; in data set [2] (setting [11]), less than 500 nM. For the same compound, the IC50 in data set [3] is less than 1000 nM.

`Cc1nc(N[C@H](C)c2cccc(C(F)(F)F)c2F)c2cc(C3(C#N)CC3)c(Cl)nc2n1` [Compound 300, (R)-1-(7-chloro-4-((1-(2-fluoro-3-(trifluoromethyl)phenyl)ethyl)amino)-2-methylpyrido[2,3-d]pyrimidin-6-yl)cyclopropane-1-carbonitrile]: the results for the IC50 (at SOS1 (setting [6]); in data set [1] (setting [8]); in data set [2] (setting [10])) were less than 100 nM, not above 1000 nM and not above 1000 nM, respectively. Further, the “DMPK-invitro-PPB (Mouse Unbound) [%]” value in data set [4] is 0.47%. Moreover, in data set [5], the half-life amounted to 1.18 h.

In the case of `COc1nc2ncnc(N[C@H](C)c3cccc(C(F)(F)[C@H](C)O)c3F)c2cc1C1(C#N)CC1` [Compound 327, 1-(4-(((R)-1-(3-((S)-1,1-difluoro-2-hydroxypropyl)-2-fluorophenyl)ethyl)amino)-7-methoxypyrido[2,3-d]pyrimidin-6-yl)cyclopropane-1-carbonitrile], the IC50 on SOS1 (setting [6]) is less than 100 nM; at SOS1 (setting [7]), less than 50 nM; in data set [1] (setting [8]) it was not above 1000 nM; in data set [1] (setting [9]), less than 500 nM; in data set [2] (setting [10]), not above 1000 nM; in data set [2] (setting [11]) it was less than 500 nM. Also, the “DMPK-invitro-PPB (Mouse Unbound) [%]” value in data set [4] is reported as 2.34%. Also, in data set [5], the half-life was determined as 2.18 h.

`COc1nc2ncnc(N[C@H](C)c3cccc(C(F)(F)[C@@H](C)O)c3F)c2cc1C1(C#N)CC1` [Compound 329, 1-(4-(((R)-1-(3-((R)-1,1-difluoro-2-hydroxypropyl)-2-fluorophenyl)ethyl)amino)-7-methoxypyrido[2,3-d]pyrimidin-6-yl)cyclopropane-1-carbonitrile]: the 50% inhibitory concentration (IC50) at SOS1 (setting [6]) is less than 100 nM; at SOS1 (setting [7]), less than 50 nM; in data set [1] (setting [8]), not above 1000 nM; in data set [1] (setting [9]), less than 500 nM; in data set [2] (setting [10]) it was not above 1000 nM; in data set [2] (setting [11]), less than 500 nM. In addition, the “DMPK-invitro-PPB (Mouse Unbound) [%]” value in data set [4] was determined as 2.72%. The half-life in data set [5] was 2 h.

In the case of `COc1nc2nc(C)nc(N[C@H](C)c3cccc(C(F)(F)[C@@H](C)O)c3F)c2cc1C1(C#N)CC1` [Compound 332, 1-(4-(((R)-1-(3-((R)-1,1-difluoro-2-hydroxypropyl)-2-fluorophenyl)ethyl)amino)-7-methoxy-2-methylpyrido[2,3-d]pyrimidin-6-yl)cyclopropane-1-carbonitrile], the IC50 at SOS1 (setting [6]) was less than 100 nM; on SOS1 (setting [7]), less than 50 nM; in data set [1] (setting [8]), not above 1000 nM; in data set [1] (setting [9]), less than 500 nM; in data set [2] (setting [10]) it was not above 1000 nM; in data set [2] (setting [11]), less than 500 nM. Besides, the IC50 in data set [3] is less than 1000 nM. The “DMPK-invitro-PPB (Mouse Unbound) [%]” value in data set [4] amounted to 0.3%. Moreover, the half-life in data set [5] came to 0.502 h.

For the compound `C[C@@H](Nc1ncnc2nc(Cl)c(C3(C#N)CC3)cc12)c1cccc(C(F)(F)F)c1F` [Compound 354, (R)-1-(7-chloro-4-((1-(2-fluoro-3-(trifluoromethyl)phenyl)ethyl)amino)pyrido[2,3-d]pyrimidin-6-yl)cyclopropane-1-carbonitrile], the IC50 was less than 100 nM on SOS1 (setting [6]); not above 1000 nM in data set [1] (setting [8]); less than 500 nM in data set [1] (setting [9]); not above 1000 nM in data set [2] (setting [10]); less than 500 nM in data set [2] (setting [11]). For the same compound, the “DMPK-invitro-PPB (Mouse Unbound) [%]” value in data set [4] was found to be 0.52%. In addition, the half-life in data set [5] was more than 3.33 h.

For `COc1nc2ncnc(N[C@H](C)c3cccc(C(F)(F)C(C)(C)O)c3)c2cc1C1(C#N)CC1` [Compound 355, (R)-1-(4-((1-(3-(1,1-difluoro-2-hydroxy-2-methylpropyl)phenyl)ethyl)amino)-7-methoxypyrido[2,3-d]pyrimidin-6-yl)cyclopropane-1-carbonitrile], the IC50 at SOS1 (setting [6]) is less than 100 nM; at SOS1 (setting [7]), less than 50 nM; in data set [1] (setting [8]) it was not above 1000 nM; in data set [1] (setting [9]) it was less than 500 nM; in data set [2] (setting [10]), not above 1000 nM; in data set [2] (setting [11]), less than 500 nM. The IC50 in data set [3] is less than 1000 nM. In addition, in data set [4], the “DMPK-invitro-PPB (Mouse Unbound) [%]” value is reported as 0.89%. The half-life in data set [5] is more than 3.33 h.

For the compound `COc1nc2ncnc(N[C@H](C)c3cccc(C(F)(F)C(C)(C)O)c3F)c2cc1C1(C#N)CC1` [Compound 356, (R)-1-(4-((1-(3-(1,1-difluoro-2-hydroxy-2-methylpropyl)-2-fluorophenyl)ethyl)amino)-7-methoxypyrido[2,3-d]pyrimidin-6-yl)cyclopropane-1-carbonitrile], the IC50 is less than 100 nM on SOS1 (setting [6]); less than 50 nM at SOS1 (setting [7]); not above 1000 nM in data set [1] (setting [8]); less than 500 nM in data set [1] (setting [9]); not above 1000 nM in data set [2] (setting [10]); less than 500 nM in data set [2] (setting [11]). Besides, the IC50 in data set [3] is less than 1000 nM. Besides, the “DMPK-invitro-PPB (Mouse Unbound) [%]” value in data set [4] was determined as 0.48%. The half-life in data set [5] was more than 3.33 h.
